Experimental data reported in patent US20250214925A1, “CATIONIC LIPID, LIPOSOME, LIPID NANOPARTICLE, AND USE” (CARCELL BIOPHARMA LTD., priority 2022, published 2025).

Key:
[1] = mRNA encapsulation efficiency of LNP by Ribogreen assay; type: physicochemical; conditions: LNP: 50% cationic lipid, 38.5% cholesterol, 10% DSPC, 1.5% DMG-PEG2000; Ffluc mRNA
Protocol: (§1) 1. The cationic lipid (50 mg/mL) prepared in the above examples of the present disclosure, cholesterol (20 mg/mL), DSPC (20 mg/mL) and DMG-PEG2000 (20 mg/mL) were dissolved in ethanol, and the solution was placed in a 55° C. metal thermostatic bath as needed to aid dissolution, to obtain a lipid mixture with the following molar composition: 1.5% DMG-PEG2000, 50% cationic lipid, 38.5% cholesterol, and 10% DSPC.
(§2) 2. The mRNA encoding Ffluc was diluted with 10 mM pH 4.0 citrate buffer to prepare a 0.2 mg/mL mRNA solution.
(§3) 3. The lipid mixture prepared in step 1 was mixed with the mRNA solution prepared in step 2 using a syringe pump with a tee at a total flow rate of 40 mL/min.
(§4) 4. The LNP mixture was collected after the three-way mixing and placed in a dialysis bag with a molecular weight cut-off of 100 KDa.
(§5) 5. The LNP mixture was dialyzed overnight against 50 mM Tris-buffered saline, pH 7.4.
(§6) 6. Sieving, and subsequent measurement of the sieved LNP to measure the PDI of the LNP by dynamic laser light scattering; to measure the mRNA encapsulation efficiency and concentration by Ribogreen assay; and to measure the pKa by TNS-α assay.

mice = assay: In vivo delivery of Ffluc mRNA LNP in mice, intravenous administration, luminescence relative to MC3; parameters: species or system mice (female Balb/C); conditions: fold change in luminescence intensity relative to MC3; 0.06 mg/kg tail vein; 6 h after injection
Protocol: The prepared encapsulation solution was applied to mice in the following manner, and its delivery efficiency in mice was tested. Among them, DLin-MC3-DMA (MC3) was a cationic liposome for delivering small nucleic acids that was approved by the FDA for marketing in 2018, which has high nucleic acid drug delivery efficiency and biosafety, and was usually used as the industry gold standard in the screening process of cationic lipids. In the evaluation of mice experiments, the ratio of nucleic acid delivery efficiency normalized to MC3 was greater than 0.1, which was considered to be a cationic lipid with high delivery efficiency.
1. The LNP solution was diluted with 50 mM TBS, pH 7.4 to a concentration of 0.1 mg/mL mRNA.
2. The mice involved in this study were female Balb/C, weighing 18-22 g, 6-8 weeks old, with 5 mice in each group.
3. The dosing solution was kept at 4° C. prior to injection.
4. Each mice received 0.06 mg/kg via tail vein injection.
5. The mice were injected intraperitoneally with 200 μL of 1.5 mg/mL D-luciferin solution 6 h after injection.
6. The in vivo luminescence images of the mice were obtained using the IVIS system (Aniview).
7. The luminescence intensity of each mice was measured using Aniview software.
8. MC3 lipid nanoparticles were used as a positive control. The in vivo efficacy of each cationic lipid tested was recorded as the fold change in luminescence intensity relative to MC3 (ratio normalized to MC3).

[2] = LNP size and PDI by dynamic laser light scattering; type: physicochemical; conditions: LNP: 50% cationic lipid, 38.5% cholesterol, 10% DSPC, 1.5% DMG-PEG2000; Ffluc mRNA
Protocol: as §1, §2, §3, §4, §5, §6

Compound	Encapsulation Rate [1]	PDI [2]	Size (nm) [2]	In Vivo Efficacy Normalized To Mc3 In Mice (Intravenous Injection) (mice)
CCCCC/C=C\C/C=C\CCCCCCCC(=O)OCC(COC(=O)/C=C(\CCCCCCC)CCCCCCCC)COC(=O)OCCCN(CC)CC (stereo not drawn) [CPL-274, 3-(((3-(diethylamino)propoxy)carbonyl)oxy)-2-((((E)-3-heptylundec-2-enoyl)oxy)methyl)propyl(9Z,12Z)-octadeca-9,12-dienoate]	97%	0.1812	78.29 nm	0.37
CCCCC/C=C\C/C=C\CCCCCCCC(=O)OCC(COC(=O)/C=C(\CCC)CCCCCC)COC(=O)OCC1CCN(C)C1 (stereo not drawn) [CPL-324, 3-((((1-methylpyrrolidin-3-yl)methoxy)carbonyl)oxy)-2-((((E)-3-propylnon-2-enoyl)oxy)methyl)propyl(9Z,12Z)-octadeca-9,12-dienoate]	95%	0.1961	99.42 nm	0.31
CCCCC/C=C\C/C=C\CCCCCCCC(=O)OCC(COC(=O)/C=C(\CCCC)CCCCCCCC)COC(=O)OCC1CCN(C)C1 (stereo not drawn) [CPL-329, 3-(((E)-3-butylundec-2-enoyl)oxy)-2-(((((1-methylpyrrolidin-3-yl)methoxy)carbonyl)oxy)methyl)propyl(9Z,12Z)-octadeca-9,12-dienoate]	97%	0.0596	75.57 nm	0.33
CCCCC/C=C\C/C=C\CCCCCCCC(=O)OCC(COC(=O)/C=C(\CCCC)CCCCCCC)COC(=O)OCC1CCN(C)C1 (stereo not drawn) [CPL-338, 3-(((E)-3-butyldec-2-enoyl)oxy)-2-(((((1-methylpyrrolidin-3-yl)methoxy)carbonyl)oxy)methyl)propyl(9Z,12Z)-octadeca-9,12-dienoate]	99%	0.1084	83.4 nm	0.52
CCCCC/C=C\C/C=C\CCCCCCCC(=O)OCC(COC(=O)/C=C(/CCCCCCCC)CCCCCCCCCC)COC(=O)OCC1CCN(C)C1 (stereo not drawn) [CPL-343, 3-((((1-methylpyrrolidin-3-yl)methoxy)carbonyl)oxy)-2-((((Z)-3-octyltridec-2-enoyl)oxy)methyl)propyl(9Z,12Z)-octadeca-9,12-dienoate]	85%	0.1584	116.3 nm	0.44
CCCCC/C=C\C/C=C\CCCCCCCC(=O)OCC(COC(=O)/C=C(/CCCC)CCCCCC)COC(=O)OCC1CCCN(C)C1 (stereo not drawn) [CPL-372, 3-(((Z)-3-butylnon-2-enoyl)oxy)-2-(((((1-methylpiperidin-3-yl)methoxy)carbonyl)oxy)methyl)propyl(9Z,12Z)-octadeca-9,12-dienoate]	98%	0.1182	90.88 nm	1.01
CCCCC/C=C\C/C=C\CCCCCCCC(=O)OCC(COC(=O)/C=C(\CCCCCC)CCCCCCC)COC(=O)OCC1CCCN(C)C1 (stereo not drawn) [CPL-383]	97%	0.1733	99.82 nm	0.80
CCCCC/C=C\C/C=C\CCCCCCCC(=O)OCC(COC(=O)/C=C(\CCCCCCC)CCCCCCCCCC)COC(=O)OCCCN1CCN(C)CC1 (stereo not drawn) [CPL-407, 3-(((E)-3-heptyltridec-2-enoyl)oxy)-2-((((3-(4-methylpiperazin-1-yl)propoxy)carbonyl)oxy)methyl)propyl(9Z,12Z)-octadeca-9,12-dienoate]	97%	0.0562	98.86 nm	0.21
CCCCC/C=C\C/C=C\CCCCCCCC(=O)OCC(COC(=O)/C=C(/CCCC)CCCCCC)COC(=O)OCCCN1CCCCC1 (stereo not drawn) [CPL-416, 3-(((Z)-3-butylnon-2-enoyl)oxy)-2-((((3-(piperidin-1-yl)propoxy)carbonyl)oxy)methyl)propyl(9Z,12Z)-octadeca-9,12-dienoate]	96%	0.009	91.52 nm	0.43
CCCCC/C=C\C/C=C\CCCCCCCC(=O)OCC(COC(=O)/C=C(\CCCCC)CCCCCCCC)COC(=O)OCCCN1CCCCC1 (stereo not drawn) [CPL-421, 3-(((E)-3-pentylundec-2-enoyl)oxy)-2-((((3-(piperidin-1-yl)propoxy)carbonyl)oxy)methyl)propyl(9Z,12Z)-octadeca-9,12-dienoate]	94%	0.1904	82.69 nm	0.37
CCCCC/C=C\C/C=C\CCCCCCCC(=O)OCC(COC(=O)/C=C(\CCCCCCC)CCCCCCCC)COC(=O)OCCCN1CCCCC1 (stereo not drawn) [CPL-428, 3-(((E)-3-heptylundec-2-enoyl)oxy)-2-((((3-(piperidin-1-yl)propoxy)carbonyl)oxy)methyl)propyl(9Z,12Z)-octadeca-9,12-dienoate]	96%	0.1411	73.57 nm	0.34
CCCCC/C=C\C/C=C\CCCCCCCC(=O)OCC(COC(=O)/C=C(\CCCCCC)CCCCCCC)COC(=O)OCC1CCN(CC)CC1 (stereo not drawn) [CPL-449, 3-((((1-ethylpiperidin-4-yl)methoxy)carbonyl)oxy)-2-((((E)-3-hexyldec-2-enoyl)oxy)methyl)propyl(9Z,12Z)-octadeca-9,12-dienoate]	97%	0.0875	73.57 nm	0.49
CCCCC/C=C\C/C=C\CCCCCCCC(=O)OCC(COC(=O)/C=C(/CCCCCCCC)CCCCCCCCCC)COC(=O)OCC1CCN(CC)CC1 (stereo not drawn) [CPL-453]	98%	0.0653	81.2 nm	0.82

Continued, in another order:

Encapsulation Rate [1]	PDI [2]	Size (nm) [2]	Compound	In Vivo Efficacy Normalized To Mc3 In Mice (Intravenous Injection) (mice)
97%	0.1816	90.31 nm	CCCCC/C=C\C/C=C\CCCCCCCC(=O)OCC(COC(=O)/C=C(\CCCCCC)CCCCCCCC)COC(=O)OCCC1CCN(C)CC1 (stereo not drawn) [CPL-292, 3-(((E)-3-hexylundec-2-enoyl)oxy)-2-((((2-(1-methylpiperidin-4-yl)ethoxy)carbonyl)oxy)methyl)propyl(9Z,12Z)-octadeca-9,12-dienoate]	0.27
94%	0.1248	88.31 nm	CCCCC/C=C\C/C=C\CCCCCCCC(=O)OCC(COC(=O)/C=C(\CCCCC)CCCCCCCC)COC(=O)OCC1CCCN(C)C1 (stereo not drawn) [CPL-377, 3-((((1-methylpiperidin-3-yl)methoxy)carbonyl)oxy)-2-((((E)-3-pentylundec-2-enoyl)oxy)methyl)propyl(9Z,12Z)-octadeca-9,12-dienoate]	0.45
96%	0.1099	82.38 nm	CCCCC/C=C\C/C=C\CCCCCCCC(=O)OCC(COC(=O)/C=C(\CCCCC)CCCCCCCCCC)COC(=O)OCC1CCCN(C)C1 (stereo not drawn) [CPL-378, 3-((((1-methylpiperidin-3-yl)methoxy)carbonyl)oxy)-2-((((E)-3-_pentyltridec-2-enoyl)oxy)methyl)propyl(9Z,12Z)-octadeca-9,12-dienoate]	0.43
91%	0.1174	83.86 nm	CCCCC/C=C\C/C=C\CCCCCCCC(=O)OCC(COC(=O)/C=C(\CCCCCC)CCCCCCCCCC)COC(=O)OCC1CCCN(C)C1 (stereo not drawn) [CPL-381, 3-(((E)-3-hexyltridec-2-enoyl)oxy)-2-(((((1-methylpiperidin-3-yl)methoxy)carbonyl)oxy)methyl)propyl(9Z,12Z)-octadeca-9,12-dienoate]	0.81
97%	0.1069	95.77 nm	CCCCC/C=C\C/C=C\CCCCCCCC(=O)OCC(COC(=O)/C=C(/CCCC)CCCCCC)COC(=O)OCCCN1CCN(C)CC1 (stereo not drawn) [CPL-394, 3-(((Z)-3-butylnon-2-enoyl)oxy)-2-((((3-(4-methylpiperazin-1-y)propoxy)carbonyl)oxy)methyl)propyl(9Z,12Z)-octadeca-9,12-dienoate]	0.13
